# Results taken from paper PMC4929566, “The metabolome of [2-^14C](−)-epicatechin in humans: implications for the assessment of efficacy, safety, and mechanisms of action of polyphenolic bioactives” (Scientific Reports, 2016).
# Read-outs that look alike come from different tables or passages of the source.
# What was measured:
# [1] = Metabolite profiling and quantification in urine (HPLC-MS2 with on-line radioactivity detector); type: in vivo, humans; conditions: human, oral 207 μmol 14C-EC, mean ± SEM n=8
# Experimental: (§1) The study was a single-center, open-label, and non-randomized study with two distinct elements: a run-in phase to establish a more defined dietary background of dietary flavanols and procyanidins and the subsequent ^14C-EC ADME study (Fig. 1B). Participants (n = 12) were enrolled in the run-in phase (day –17 to day –4) and asked to supplement their daily diet for 14 days with a commercially available flavanol-containing cocoa-based drink (250 mg cocoa flavanols; 40 mg of EC). This was followed by a 4-day period (day –4 to 0) of a low-flavanol diet. One day (study day -1) prior to the initialization of the ^14C-EC ADME study, all eligible participants were accommodated under controlled conditions at a metabolic research facility (Covance Clinical Pharmacology Inc., Wisconsin) until completion of the study. Based on the compliance of the first part of the study, 8 participants were selected to participate in the ^14C-EC ADME study. During the ^14C-EC ADME study (Fig. 1B.), volunteers received a low-flavanol, standardized high-fiber diet, and were encouraged to maintain an adequate level of hydration (water ad libitum). Volunteers were asked to fast for 8 h before the initiation of the study and for at least 4 h after the intake of the ^14C-EC test drink (water ad libitum). Venous blood samples were taken using Vacutainer collection tubes, containing potassium EDTA at 0 h (just prior to ^14C-EC ingestion), and at 0.25, 0.5, 1, 1.5, 2, 2.5, 3, 4, 6, 8, 10, 12, 16, 24, 36, and 48 h after test drink consumption. Plasma was obtained by whole blood centrifugation at 2000 × g for 15 min at 5 °C, separated into aliquots and stored at −80 °C until analysis. All urine and feces from the time just prior to the consumption of the test drink were collected at different time intervals for radioactivity and metabolite profiling. Clinical parameters and laboratory evaluations of participants were assessed at screening, on study day –1, and after completing the study, as detailed in Supplementary Methods.
# (§2) Samples were processed as described previously[18] and analyzed by HPLC-MS^2 in conjunction with an on-line HPLC-radioactivity monitor as described in SI Materials and Methods. Identification of metabolites involved comparing the retention time with authentic standards and MS^2 fragmentation patterns (Supplementary Methods). Quantification of metabolites in urine was based on HPLC radioactivity peak area (limit of quantification: 10^3 dpm). Due to the low levels of radioactivity, quantification in plasma was based on targeted HPLC-MS^2 using standard curves obtained with authentic standards (Supplementary Methods).
# HPLC-MS identifications of radiolabeled [2-14C](−)-epicatechin metabolites in urine Urine was analyzed with radioactivity and mass spectrometry (MS) detection using a 250 mm x 4.6 mm i.d. 5 µm Luna Phenyl-Hexyl column (Phenomenex, Macclesfield, UK) […]
# formic acid. Metabolite identification was performed by 1) co-chromatography of metabolites with reference compounds and a comparison of their MS fragmentation patterns 2, 2) by comparing m/z fragmentation patterns with earlier in-house observed […]
# patterns to databases of metabolites reported in earlier polyphenol feeding studies5-7.
# Supplementary Table S2, which also provides information on the MSI MI (Metabolite Standards Initiative – Metabolites Identification) level, a confidence level for identification where level 1 stands for fully elucidated (i.e., by comparison with a standard) and level 2 for a well characterized, but not yet fully structurally elucidated 8
# [2] = Metabolite profiling and pharmacokinetics in plasma (targeted HPLC-MS2); type: in vivo, humans; conditions: human plasma, oral 60 mg 14C-EC; for Cmax / AUC(0-t) / half-life / Tmax / AUC0-24h / T1/2 (elimination half-life): mean ± SEM n=8; for AUC(0-t): read-out: AUC0-24h; for half-life: read-out: T1/2 (elimination half-life) (converted)
# Experimental: as §1, §2
# Data are expressed as mean values ± standard error, or as otherwise specified. Pharmacokinetic parameters were calculated using non-compartmental analysis with WinNonlin (Pharsight Corporation, Version 5.2).
# 5-20% acetonitrile in 0.1 % formic acid. Supplementary Table S2 provides details of HPLC retention times and the m/z values that were monitored.
# Supplementary Table S2. Detection of (−)-epicatechin metabolites. HPLC retention times and selected reaction monitoring ions used for the HPLC-MS analysis of (−)-epicatechin metabolites in plasma. […]
# Structurally related (-)-epicatechin metabolites in humans: assessment using de novo chemically synthesized authentic standards. Free Radic Biol Med 52, 1403- […]
# 3 Borges, G. et al. Bioavailability of multiple components following acute ingestion of a polyphenol-rich juice drink. Mol Nutr Food Res 54 Suppl 2, S268-277, […]
# 4 Stalmach, A. et al. Absorption, metabolism, and excretion of green tea flavan-3-ols in humans with an ileostomy. Mol Nutr Food Res 54, 323-334,
SMILES,"Metabolite present in urine, collection period 0–48 h [1] [μ mol]","Metabolite present in urine, collection period 0–4 h ([1]; – = not detected) [μ mol]","Metabolite present in urine, collection period 4–8 h ([1]; – = not detected) [μ mol]","Metabolite present in urine, collection period 8–12 h ([1]; – = not detected) [μ mol]","Metabolite present in urine, collection period 12–24 h ([1]; – = not detected) [μ mol]","Metabolite present in urine, collection period 24–48 h ([1]; – = not detected) [μ mol]",Cmax ([2]; male) [nM],AUC(0-t) ([2]; male) [µM·h],half-life ([2]; male) [h],"Tmax ([2]; male, read-out: Tmax) [h]","concentration at 24 h ([2]; male, read-out: Plasma concentration 24 h after ingestion) [nM]",AUC0-24h [2] [µM·h],Cmax [2] [nM],T1/2 (elimination half-life) [2] [h],Tmax [2] [h]
O=C1CCC(Cc2ccc(O)c(OS(=O)(=O)O)c2)O1 (stereo not shown) [5-(4′-hydroxyphenyl)-γ-valerolactone-3′-sulfate],38.0 ± 4.7,3.6 ± 1.1,16.0 ± 3.0,9.8 ± 2.0,8.1 ± 2.9,0.5 ± 0.5,272 ± 56,7.59 ± 2.68,6.3 ± 1.7,6.4 ± 1,~50,–,–,–,–
"COc1cc([C@H]2Oc3cc(O)cc(OS(=O)(=O)O)c3C[C@H]2O)ccc1O [3′-O-Methyl-(−)-epicatechin-5-sulfate, 3′-O-methyl-(−)-epicatechin-5-sulfate]",9.6 ± 1.2,7.1 ± 0.9,1.8 ± 0.3,0.4 ± 0.1,0.3 ± 0.2,–,240 ± 24,0.915 ± 0.178,1.6 ± 0.1,0.9 ± 0.1,–,–,–,–,–
COc1ccc([C@H]2Oc3cc(OS(=O)(=O)O)cc(O)c3C[C@H]2O)cc1O [4′-O-Methyl-(−)-epicatechin-7-sulfate],0.4 ± 0.2,0.3 ± 0.1,0.1 ± 0.1,–,–,–,–,–,–,–,–,0.166 ± 0.054,33 ± 5,2.6 ± 0.5,1.4 ± 0.2
COc1cc([C@H]2Oc3cc(O)cc(O)c3C[C@H]2O)ccc1OS(=O)(=O)O [3′-O-Methyl-(−)-epicatechin-4′-sulfate],0.7 ± 0.2,0.7 ± 0.2,–,–,–,–,–,–,–,–,–,0.203 ± 0.069,53 ± 13,2.3 ± 0.6,0.9 ± 0.1
O=S(=O)(O)Oc1cc(O)cc2c1C[C@@H](O)[C@@H](c1ccc(O)c(O)c1)O2 [(−)-Epicatechin-5-sulfate],1.3 ± 0.2,1.3 ± 0.2,–,–,–,–,–,–,–,–,–,0.092 ± 0.025,32 ± 4,1.9 ± 0.3,0.8 ± 0.1
COc1ccc([C@H]2Oc3cc(O)cc(OS(=O)(=O)O)c3C[C@H]2O)cc1O [4′-O-Methyl-(−)-epicatechin-5-sulfate],1.1 ± 0.3,1.0 ± 0.2,0.1 ± 0.1,–,–,–,–,–,–,–,–,0.128 ± 0.045,53 ± 14,1.4 ± 0.3,0.9 ± 0.1
